Source: article PMC8041284, “Tunable Methacrylamides for Covalent Ligand Directed Release Chemistry” (Journal of the American Chemical Society, 2021)
Where a SMILES comes first, the peptide text is derived from it. [ ]: non-standard residue; d: D form. Nle = CCCC[C@H](N)C(=O)O

What follows are compounds tested against BTK (Homo sapiens, UniProt Q06187) (assay: biochemical). Details: read-out: BTK inhibition (%), 0.75 uM BTK, […] probe 3l, 15 min preincubation.
BTK, sequence (Q06187 402-655 limits assumed): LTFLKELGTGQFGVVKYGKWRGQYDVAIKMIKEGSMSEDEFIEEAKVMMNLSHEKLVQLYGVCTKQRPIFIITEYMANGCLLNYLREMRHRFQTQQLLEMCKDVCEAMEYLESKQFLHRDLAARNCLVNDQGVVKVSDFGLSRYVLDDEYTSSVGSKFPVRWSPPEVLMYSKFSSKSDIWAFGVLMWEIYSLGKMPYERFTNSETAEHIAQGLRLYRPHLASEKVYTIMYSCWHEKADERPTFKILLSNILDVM

| inhibition at 10 µM | SMILES |
| --- | --- |
| -18.7% | C[C@@H](O)[C@H]1C(=O)N2C(C(=O)[O-])=C(SC3Cn4cnc[n+]4C3)[C@H](C)[C@H]12 (stereo partly drawn) [PCM-0215353] |
| 11.1% | CCC(C)CC(C)CCCCCCCCC(=O)N[C@H]1C[C@@H](O)[C@@H](NCCN)NC(=O)[C@@H]2[C@@H](O)CCN2C(=O)[C@H]([C@H](O)CCN)NC(=O)[C@H]([C@H](O)[C@@H](O)c2ccc(O)cc2)NC(=O)[C@@H]2C[C@@H](O)CN2C(=O)[C@H]([C@@H](C)O)NC1=O (stereo partly drawn) [PCM-0215354] |
| -17% | CCOC(=O)NCCCC(=O)NCCc1ccccc1 [PCM-0215356] |
| -26.9% | CN1CCN(c2ccc(OC(F)(F)F)c(Nc3ncc4c(n3)-c3c(c(C(N)=O)nn3CCO)CC4)c2)CC1 [PCM-0215357] |
| 113% | Cc1cc2c(C(=O)NC[C@H](C)c3ccccc3)c(O)c(O)cc2c(O)c1-c1c(C)cc2c(C(=O)NC[C@H](C)c3ccccc3)c(O)c(O)cc2c1O [PCM-0215358] |
| 0% | CNc1nc(Nc2cnn([C@H]3CCN(C4COC4)C[C@@H]3F)c2Cl)ncc1C(F)(F)F [PCM-0215360] |
| 31.7% | O=C(Nc1nc2cccc(-c3ccc(CN4CCS(=O)(=O)CC4)cc3)n2n1)C1CC1 [PCM-0215361] |
| 15.4% | COC(=O)CC[C@H](NC(=O)[C@H](CC(=O)OC)NC(=O)OCc1ccccc1)C(=O)N[C@H](C(=O)N[C@@H](CC(=O)OC)C(=O)CF)C(C)C [PCM-0215362] |
| -20.8% | CC[C@H]1OC(=O)[C@H](C)[C@@H](O[C@H]2C[C@@](C)(OC)[C@@H](O)[C@H](C)O2)[C@H](C)[C@@H](O[C@@H]2O[C@H](C)C[C@H](N(C)C)[C@H]2O)[C@](C)(O)C[C@@H](C)C(=O)[C@H](C)[C@H]2OC(=O)O[C@@]21C [PCM-0215364] |
| -3.9% | CN1CC[C@@H](NC(=O)Nc2ccc(C#N)cc2)C[C@@H]1c1nc2ccccc2[nH]1 [PCM-0215365] |
| -11.6% | CN[C@@H](C)C(=O)N[C@H](C(=O)N1CCC[C@H]1c1nc(C(=O)c2ccc(F)cc2)cs1)C1CCCCC1 [PCM-0215366] |
| 84.9% | C=CC(=O)N1CCN(C(=O)CNc2cc(I)c(Cl)cc2O)CC1 [PCM-0215367] |
| -27.8% | COc1cccc2c1c(O)c(C(=O)N(C)c1ccc(C(F)(F)F)cc1)c(=O)n2C [PCM-0215368] |
| 22.4% | N#C/C(=C\c1ccc(-c2cc(Cl)ccc2Cl)o1)C(=O)Nc1cccc2ncccc12 [PCM-0215369] |
| -19.3% | CCCCCCCCCCCCCCCc1cccc(O)c1C(=O)O [PCM-0215370] |
| 9.3% | CC1=CC(=O)CC(C)(C)[C@@]1(O)/C=C/C(C)=C\C(=O)O [PCM-0215371] |
| 116% | Cc1ccc(NC(=O)Nc2cc(C(F)(F)F)ccc2F)cc1Nc1ccc2c(c1)NC(=O)/C2=C\c1ccc[nH]1 [PCM-0215372] |
| 26.3% | CN1CCN(Cc2ccc(NC(=O)Cc3ccc(Oc4cc(NC(=O)C5CC5)ncn4)cc3)cc2C(F)(F)F)CC1 [PCM-0215373] |
| 18.5% | CCCC[C@@H](C=O)NC(=O)[C@H](CC(C)C)NC(=O)[C@H](CC(C)C)NC(C)=O [PCM-0215374] (Ac-Leu-Leu-[Nle]-aldehyde) |
| 101% | C[C@@H](Oc1ccc2[nH]nc(/C=C/c3cnn(CCO)c3)c2c1)c1c(Cl)cncc1Cl [PCM-0215376] |
| 111% | CN1CCN(Cc2ccc(-c3cnc4[nH]cc(-c5ccc6[nH]ccc6c5)c4c3)cc2)CC1 [PCM-0215377] |
| 51.7% | O=C(O)CSc1cc(NS(=O)(=O)c2ccc(Br)cc2)c2ccccc2c1O [PCM-0215378] |
| -7.7% | CC(C)c1cc2c(N3CCN(C4=NCC(C)(C)S4)CC3)ncnc2s1 [PCM-0215379] |
| 43.2% | N#Cc1ccc(-c2csc(NN=C3CCCC3)n2)cc1 [PCM-0215381] |

| inhibition at 10 µM | SMILES |
| --- | --- |
| -1.5% | Cc1cccc(-c2[nH]c(CNc3ccccc3F)nc2-c2ccc3ncnn3c2)n1 [PCM-0215382] |
| 13.9% | O=C(O)c1ccccc1C(=O)Nc1ccc(-c2ccccc2)cc1 [PCM-0215383] |
| -27.8% | COc1ccc(C2=N[C@H](c3ccc(Cl)cc3)[C@H](c3ccc(Cl)cc3)N2C(=O)N2CCNC(=O)C2)c(OC(C)C)c1 [PCM-0215386] |
| 79.5% | CN1CCN(Cc2ccc(NC(=O)Nc3ccc(Oc4cc(NC(=O)C5CC5)ncn4)cc3)cc2C(F)(F)F)CC1 [PCM-0215388] |
| 85.5% | CCS(=O)(=O)N1CCN(c2ccc(Nc3ncc(C(N)=O)c(NC4CC4)n3)cc2)CC1 [PCM-0215389] |
| 2.3% | CC[C@H]1[C@@H](O)[C@@H]2[C@H](CC[C@]3(C)[C@@H]([C@H](C)CCC(=O)O)CC[C@@H]23)[C@@]2(C)CC[C@@H](O)C[C@@H]12 [PCM-0215390] |
| 27.8% | COc1cc(C(=O)O)ccc1NC(=O)[C@@H]1N[C@@H](CC(C)(C)C)[C@](C#N)(c2ccc(Cl)cc2F)[C@H]1c1cccc(Cl)c1F [PCM-0215391] |
| 73.1% | O=C(Nc1ccc([N+](=O)[O-])cc1O)Nc1ccccc1Br [PCM-0215392] |
| -24.7% | CCCc1cc2c(N3CCN(C4=NCC(C)(C)S4)CC3)ncnc2s1 [PCM-0215393] |
| 17.9% | C[C@H]1Oc2cc(cnc2N)-c2c(nn(C)c2C#N)CN(C)C(=O)c2ccc(F)cc21 [PCM-0215394] |
| 74.9% | COC(=O)N[C@H](C(=O)N1CC2(CC2)C[C@H]1c1ncc(-c2ccc3c(c2)C(F)(F)c2cc(-c4ccc5nc([C@@H]6[C@H]7CC[C@H](C7)N6C(=O)[C@@H](NC(=O)OC)C(C)C)[nH]c5c4)ccc2-3)[nH]1)C(C)C [PCM-0215396] |
| -19.3% | O=C(/C=C\n1cnc(-c2cc(C(F)(F)F)cc(C(F)(F)F)c2)n1)NNc1ccccn1 [PCM-0215397] |
| 1.5% | COc1ccc(OC)c(C2C(C#N)=C(N)Oc3n[nH]c(-c4ccc5ccccc5c4)c32)c1 (stereo not drawn) [PCM-0215398] |
| 25.5% | C/C(=N\NC(=O)c1cccc(S(=O)(=O)N2CCOCC2)c1)c1cc(Cl)ccc1O [PCM-0215399] |
| 31.7% | CC(=O)N1c2ccc(-c3ccc(C(=O)O)cc3)cc2[C@H](Nc2ccc(Cl)cc2)C[C@@H]1C [PCM-0215400] |
| 4.3% | CN[C@@H]1[C@@H](O)[C@@H](O[C@@H]2[C@@H](O)[C@H](O[C@H]3O[C@H](CN)[C@@H](O)[C@H](O)[C@H]3O)[C@@H](N)C[C@H]2NC(=O)[C@@H](O)CN)OC[C@]1(C)O [PCM-0215401] |
| 1.5% | CCC(CC)n1ccc2c(C(=O)NCc3c(C)cc(C)[nH]c3=O)cc(C#N)cc21 [PCM-0215402] |
| 0% | COC(=O)c1ccc2c(c1)nc(NC(=O)c1ccccc1)n2CCCc1ccccc1 [PCM-0215403] |
| 8.5% | COc1ccc(C(=O)CC2(O)C(=O)Nc3c(Cl)ccc(Cl)c32)cc1 (stereo not drawn) [PCM-0215405] |
| 101% | c1nc2nc(Nc3ccc(N4CCOCC4)cc3)nc(NC3CCCCC3)c2[nH]1 [PCM-0215406] |
| 20.1% | CC(C)(C)OC(=O)Nc1ccc(-c2cc(C(=O)NCCCCCCC(=O)NO)no2)cc1 [PCM-0215407] |
| -10.3% | NC[C@@](O)(c1ccc(Cl)cc1)c1ccc(-c2cn[nH]c2)cc1 [PCM-0215408] |
| 9.3% | Cc1cc(C)cc(C(=O)NOCCCCCC(=O)NO)c1 [PCM-0215409] |

| SMILES | inhibition at 10 µM |
| --- | --- |
| Cc1c(Cl)c(OCC(=O)N2CCN(C)CC2)nc2sc(C(=O)NC3CC3)c(N)c12 [PCM-0215380] | -10.8% |
